Data on five compounds can be found in ChEMBL document CHEMBL1129888, “Synthesis and evaluation of halogenated dibenzodiazepines as muscarinic receptor ligands” (Bioorg Med Chem Lett, 1997).

In assay [1] the target is Muscarinic acetylcholine receptor M3 (Homo sapiens, UniProt P20309). Description: Tested in vitro for the binding affinity against muscarinic receptor subtype 3 (M3).
The target in assay [2] is T1, Muscarinic acetylcholine receptor M2 (Homo sapiens, UniProt P08172).
T1 sequence (P08172 whole entry): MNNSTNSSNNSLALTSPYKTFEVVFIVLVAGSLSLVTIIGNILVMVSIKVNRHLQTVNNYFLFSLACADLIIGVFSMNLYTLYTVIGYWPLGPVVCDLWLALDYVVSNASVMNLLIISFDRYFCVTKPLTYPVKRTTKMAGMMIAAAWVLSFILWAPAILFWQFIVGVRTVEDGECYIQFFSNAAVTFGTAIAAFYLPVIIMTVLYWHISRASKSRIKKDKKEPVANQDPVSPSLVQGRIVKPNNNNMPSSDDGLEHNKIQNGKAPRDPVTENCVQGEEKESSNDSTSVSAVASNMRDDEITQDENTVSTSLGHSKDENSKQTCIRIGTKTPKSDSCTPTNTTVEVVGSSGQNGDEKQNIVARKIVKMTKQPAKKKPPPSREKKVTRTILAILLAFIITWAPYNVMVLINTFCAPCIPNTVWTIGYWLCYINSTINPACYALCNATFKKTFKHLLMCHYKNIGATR
Description: Tested in vitro for the binding affinity against muscarinic receptor subtype 2 (M2).

Assay [3] addresses T2, Muscarinic acetylcholine receptor M1 (Homo sapiens, UniProt P11229).
T2 sequence (P11229 whole entry): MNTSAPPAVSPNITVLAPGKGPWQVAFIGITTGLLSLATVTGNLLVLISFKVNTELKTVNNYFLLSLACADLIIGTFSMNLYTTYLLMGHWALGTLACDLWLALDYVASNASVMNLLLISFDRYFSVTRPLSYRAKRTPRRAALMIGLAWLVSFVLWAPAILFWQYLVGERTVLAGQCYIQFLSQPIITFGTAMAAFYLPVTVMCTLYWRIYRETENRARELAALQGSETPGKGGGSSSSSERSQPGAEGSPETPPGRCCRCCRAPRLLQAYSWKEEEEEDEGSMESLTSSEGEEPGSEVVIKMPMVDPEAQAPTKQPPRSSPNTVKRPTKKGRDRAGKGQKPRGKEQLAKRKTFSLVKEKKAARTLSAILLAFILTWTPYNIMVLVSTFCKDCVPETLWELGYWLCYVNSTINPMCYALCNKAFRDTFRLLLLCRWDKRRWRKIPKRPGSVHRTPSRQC
As to the kind of experiment: Tested in vitro for the binding affinity against muscarinic receptor subtype 1 (M1).

Chain of Muscarinic acetylcholine receptor M3 (P20309 whole entry): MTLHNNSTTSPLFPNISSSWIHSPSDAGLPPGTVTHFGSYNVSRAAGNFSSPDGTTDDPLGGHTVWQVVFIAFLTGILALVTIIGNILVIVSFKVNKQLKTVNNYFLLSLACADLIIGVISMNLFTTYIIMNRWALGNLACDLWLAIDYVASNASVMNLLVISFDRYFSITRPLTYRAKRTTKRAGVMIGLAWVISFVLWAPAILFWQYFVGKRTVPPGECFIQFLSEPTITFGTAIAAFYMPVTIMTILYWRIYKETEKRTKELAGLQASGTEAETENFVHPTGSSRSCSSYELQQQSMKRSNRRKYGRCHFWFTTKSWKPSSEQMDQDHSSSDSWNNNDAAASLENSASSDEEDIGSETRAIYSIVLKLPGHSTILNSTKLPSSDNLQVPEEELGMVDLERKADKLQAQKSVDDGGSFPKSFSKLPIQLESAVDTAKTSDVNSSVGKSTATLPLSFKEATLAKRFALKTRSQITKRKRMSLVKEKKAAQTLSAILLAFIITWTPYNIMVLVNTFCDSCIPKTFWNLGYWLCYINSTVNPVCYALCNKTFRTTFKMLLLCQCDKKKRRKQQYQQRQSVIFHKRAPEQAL

The Ki is the equilibrium dissociation constant of an inhibitor or competing ligand from its target. Read a high Ki as weaker binding. `CCOC(=O)N(CC)CCCCC1CCN(CC(=O)N2c3ccccc3NC(=O)c3ccccc32)CC1`: the Ki is 39.2 nM in assay [1], 37.1 nM in assay [2] and 70 nM in assay [3].
The corresponding values for `CCN(CCCCC1CCN(CC(=O)N2c3ccccc3NC(=O)c3ccccc32)CC1)C(=O)c1cccc(I)c1` are 33.5 nM, 111 nM and 67.1 nM.
The corresponding values for `CCN(CCCCC1CCN(CC(=O)N2c3ccccc3C(=O)N(C(=O)c3ccc(F)cc3)c3ccccc32)CC1)C(=O)c1ccc(F)cc1` are 79.1 nM, 46.9 nM and 129 nM.
The corresponding values for `CCN(CCCCC1CCN(CC(=O)N2c3ccccc3NC(=O)c3ccccc32)CC1)C(=O)c1ccc(F)cc1` are 46.4 nM, 32 nM and 59.4 nM.
Turning to `CCNCCCCC1CCN(CC(=O)N2c3ccccc3NC(=O)c3ccccc32)CC1`, the Ki turned out to be 4.49 nM in assay [2] and 6.98 nM in assay [3].
